Reference: BigSolDB 2.1

Cc1ccc2c(c1)C(=O)OC2=O
solubility (mole fraction)
Details	278.15 K	283.15 K	288.15 K	293.15 K	298.15 K	303.15 K	308.15 K	313.15 K	318.15 K
in acetone	0.127	0.15	0.176	0.206	0.236	0.272	0.312	0.356	0.406
in acetonitrile	0.101	0.118	0.141	0.167	0.193	0.224	0.258	0.3	0.343
in cyclohexane	–	0.00152	0.0019	0.00245	0.0031	0.00396	0.00489	0.00591	0.00729
in methyl acetate	0.179	0.206	0.236	0.263	0.289	0.328	0.363	0.41	0.449
in n-butyl acetate	0.0226	0.0267	0.0312	0.0397	0.0473	0.0586	0.0716	0.0858	0.102
in n-heptane	0.00107	0.00142	0.00178	0.00227	0.00284	0.00355	0.00444	0.00556	0.007
in tetrachloromethane	0.00751	0.00871	0.0105	0.0127	0.0157	0.0189	0.0222	0.0265	0.0321
in toluene	0.0651	0.0781	0.0945	0.11	0.133	0.158	0.188	0.225	0.273
